Measured values: article PMC9061999, “Application of the Adverse Outcome Pathway Concept to In Vitro Nephrotoxicity Assessment: Kidney Injury due to Receptor-Mediated Endocytosis and Lysosomal Overload as a Case Study” (Frontiers in Toxicology, 2022)

Test system: NRK-52E cells
Assay: Cathepsin D immunofluorescence (KE2, disruption of lysosomes)
Type: cell-based, rat
Conditions: for MOE, lowest across KEs: in vitro PODs in NRK-52E vs rat plasma concentrations after human equivalent or nephrotoxic doses
Protocol: For immunocytochemistry experiments, cells were seeded into 8-well chamber slides (Ibidi) at a density of 140 cells per µL in 300 µL growth medium and were allowed to grow for 48 h (NRK-52E) or 10 d (RPTEC/TERT1) respectively. For treatment, stock solutions (1,000 µM) of compounds dissolved in growth medium were freshly prepared and serial dilutions were made before exposure of cells for 24 h. After treatment, cells were washed twice with 150 µL PBS and fixed with 150 µL 4% paraformaldehyde in 1 x PBS for 10 min at room temperature. After fixation, cells were washed 10 min with 150 µL PBS on an orbital shaker followed by permeabilization with 150 µL 0.2% Triton X-100 in 1 x PBS for 5 min at room temperature on an orbital shaker. The permeabilized cells were washed twice with 1 x PBS (150 µL) for 10 min at room temperature on an orbital shaker and then incubated with 150 µL 5% BSA dissolved in 1 x PBS for 1 h at room temperature to block unspecific binding sites. After blocking, 100 µL primary antibody diluted 1:100 in 1% BSA in 1 x PBS were directly pipetted onto the cells and incubated overnight at 4°C. The following antibodies were employed for NRK-52E cells: Anti-LAMP-1 monoclonal IgG1 kappa mouse antibody (Santa Cruz; sc-20011), anti-Cathepsin D mouse monoclonal IgG2 kappa antibody (Santa Cruz; sc-377124); for RPTEC/TERT1 cells: Anti-LAMP-2 monoclonal mouse antibody (Santa Cruz; sc-18822), anti-Cathepsin D mouse monoclonal IgG2b kappa (Novus Biologicals; NBP1-04278); for both cell lines anti-megalin mouse monoclonal IgG1 antibody (Santa Cruz, sc-515772).
After incubation with primary antibody, cells were washed three times for 15 min with 0.2% Tween in 1 x PBS (150 µL) on an orbital shaker. Cells were incubated for 1 h at room temperature with 100 µL CFL 488-conjugated mouse IgG kappa binding protein (1:50) (m-IgGκ BP-CFL 488; Santa Cruz, sc-516176). After incubation the cells were washed three times for 15 min with 0.2% Tween in 1 x PBS on an orbital shaker and once with 150 µL sterile water. […] To preserve fluorescence 50–100 µL DAPI mounting medium (Vectashield®; Vectorlab, Biozol) was added to the cells and chamber slides were stored at 4°C in the dark until image acquisition.
Images were taken with a TCS SP5 II confocal microscope with an HCX PL APO lambda blue 63.0 × 1.40 OIL UV objective (Leica Microsystems, Wetzlar, GER) (n = 10 cells/treatment group). […] Before quantification, images were blinded and randomized. Quantification of fluorescence intensity was performed using NIH Image® software. […] The mean values of the pixel intensities were automatically calculated by the software and imported in Excel for further processing.

Substance	MOE, lowest across KEs	BMC10, KE2 (in vitro POD from KE dose-response, cathepsin D intensity, NRK-52E, 24 h treatment, n = 3) [µM]	MOE, KE2 (margin of exposure: BMC10 in NRK-52E vs rat plasma/serum concentration (cmax or css))
Colistin	1.8		
Polymyxin B	0.8	5.8	0.8
